# Assay results published in patent publication US20260062412A1, “NITROGEN-CONTAINING HETEROCYCLIC COMPOUND HAVING MYT1 INHIBITORY ACTIVITY” (CHUGAI SEIYAKU KABUSHIKI KAISHA, priority 2023, published 2026).
# pIC50: −log10 of the molar value.
# Target: MYT1 protein (Homo sapiens (Human), UniProt Q99640)
# Assay: Test for binding to ATP binding site of MYT1 (Kinase Tracer 178 / Eu-Anti-GST antibody TR-FRET)
# Settings: ATP binding site of MYT1, 30 minutes at room temperature
# Sequence of MYT1 protein (Q99640 whole entry): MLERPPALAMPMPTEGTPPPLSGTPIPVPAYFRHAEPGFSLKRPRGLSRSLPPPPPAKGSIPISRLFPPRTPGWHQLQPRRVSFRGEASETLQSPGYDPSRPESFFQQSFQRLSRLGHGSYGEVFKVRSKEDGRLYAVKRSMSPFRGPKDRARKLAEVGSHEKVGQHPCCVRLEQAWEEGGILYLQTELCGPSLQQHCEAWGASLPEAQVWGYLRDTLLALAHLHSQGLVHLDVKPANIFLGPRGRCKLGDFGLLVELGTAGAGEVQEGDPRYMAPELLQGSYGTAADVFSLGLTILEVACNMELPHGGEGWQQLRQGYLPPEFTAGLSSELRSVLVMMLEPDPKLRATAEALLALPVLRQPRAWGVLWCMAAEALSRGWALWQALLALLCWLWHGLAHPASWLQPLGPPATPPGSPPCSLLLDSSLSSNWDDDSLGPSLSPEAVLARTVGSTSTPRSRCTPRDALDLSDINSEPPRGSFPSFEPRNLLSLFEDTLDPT
row,Compound,pIC50
1,"Nc1c(-c2ccc(F)c3[nH]ncc23)c2cc(OC(F)(F)F)c3ncccc3c2[nH]c1=O [Compound C188, 3-Amino-4-(7-fluoro-1H-indazol-4-yl)-6-(trifluoromethoxy)-1H-1,7-phenanthrolin-2-one]",8.39
2,"Cc1cc2c(-c3ccc(F)c4[nH]ncc34)c(N)c(=O)[nH]c2c2cc(B(O)O)cnc12 [Compound C189, [3-Amino-4-(7-fluoro-1H-indazol-4-yl)-6-methyl-2-oxo-1H-1,7-phenanthrolin-9-yl]boronic acid]",7.74
3,"Nc1c(-c2cc(F)c(F)c3[nH]ncc23)c2cc(C3CC3)c3ncccc3c2[nH]c1=O [Compound C191, 3-Amino-6-cyclopropyl-4-(6,7-difluoro-1H-indazol-4-yl)-1H-1,7-phenanthrolin-2-one]",8.22
4,"CCc1cc2c(-c3cc(F)c(F)c4[nH]ncc34)c(N)c(=O)[nH]c2c2cccnc12 [Compound C192, 3-Amino-4-(6,7-difluoro-1H-indazol-4-yl)-6-ethyl-1H-1,7-phenanthrolin-2-one]",8.43
5,"CCOc1cc2c(-c3cc(F)c(Cl)c4[nH]ncc34)c(N)c(=O)[nH]c2c2cccnc12 [Compound C193, 3-Amino-4-(7-chloro-6-fluoro-1H-indazol-4-yl)-6-ethoxy-1H-1,7-phenanthrolin-2-one]",8.77
6,"CC(C)Oc1cc2c(-c3cc(F)c(Cl)c4[nH]ncc34)c(N)c(=O)[nH]c2c2cccnc12 [Compound C194, 3-Amino-4-(7-chloro-6-fluoro-1H-indazol-4-yl)-6-propan-2-yloxy-1H-1,7-phenanthrolin-2-one]",8.80
7,"Cc1cc2c(-c3cc(F)c(Cl)c4[nH]ncc34)c(N)c(=O)[nH]c2c2cccnc12 [Compound C196, 3-Amino-4-(7-chloro-6-fluoro-1H-indazol-4-yl)-6-methyl-1H-1,7-phenanthrolin-2-one]",8.44
8,"Nc1c(-c2cc(F)c(F)c3[nH]ncc23)c2ccc3ncccc3c2[nH]c1=O [Compound C197, 3-Amino-4-(6,7-difluoro-1H-indazol-4-yl)-1H-1,7-phenanthrolin-2-one]",7.70
9,"Nc1c(-c2cc(F)c(F)c3[nH]ncc23)c2cc(Cl)c3ncccc3c2[nH]c1=O [Compound C198, 3-Amino-6-chloro-4-(6,7-difluoro-1H-indazol-4-yl)-1H-1,7-phenanthrolin-2-one]",8.51
10,"Nc1c(-c2cc(F)c(F)c3[nH]ncc23)c2cc(O)c3ncccc3c2[nH]c1=O [Compound C199, 3-Amino-4-(6,7-difluoro-1H-indazol-4-yl)-6-hydroxy-1H-1,7-phenanthrolin-2-one]",8.42
11,"Nc1c(-c2cc(F)c(F)c3[nH]ncc23)c2cc(C3CCC3)c3ncccc3c2[nH]c1=O [Compound C201, 3-Amino-6-cyclobutyl-4-(6,7-difluoro-1H-indazol-4-yl)-1H-1,7-phenanthrolin-2-one]",8.24
12,"Nc1c(-c2cc(F)c(F)c3[nH]ncc23)c2cc(C3CCCC3)c3ncccc3c2[nH]c1=O [Compound C202, 3-Amino-6-cyclopentyl-4-(6,7-difluoro-1H-indazol-4-yl)-1H-1,7-phenanthrolin-2-one]",8.11
13,"CC(C)Cc1cc2c(-c3cc(F)c(F)c4[nH]ncc34)c(N)c(=O)[nH]c2c2cccnc12 [Compound C203, 3-Amino-4-(6,7-difluoro-1H-indazol-4-yl)-6-(2-methylpropyl)-1H-1,7-phenanthrolin-2-one]",7.77
14,"C=Cc1cc2c(-c3cc(F)c(F)c4[nH]ncc34)c(N)c(=O)[nH]c2c2cccnc12 [Compound C204, 3-Amino-4-(6,7-difluoro-1H-indazol-4-yl)-6-ethenyl-1H-1,7-phenanthrolin-2-one]",8.00
15,"Nc1c(-c2cc(F)c(F)c3[nH]ncc23)c2cc(OC(F)F)c3ncccc3c2[nH]c1=O [Compound C205, 3-Amino-4-(6,7-difluoro-1H-indazol-4-yl)-6-(difluoromethoxy)-1H-1,7-phenanthrolin-2-one]",8.47
16,"Nc1c(-c2cc(F)c(F)c3[nH]ncc23)c2cc(OC3CCC3)c3ncccc3c2[nH]c1=O [Compound C206, 3-Amino-6-cyclobutyloxy-4-(6,7-difluoro-1H-indazol-4-yl)-1H-1,7-phenanthrolin-2-one]",8.39
17,"Cn1cc(-c2cc3c(-c4cc(F)c(F)c5[nH]ncc45)c(N)c(=O)[nH]c3c3cccnc23)cn1 [Compound C207, 3-Amino-4-(6,7-difluoro-1H-indazol-4-yl)-6-(1-methylpyrazol-4-yl)-1H-1,7-phenanthrolin-2-one]",9.00
18,"Nc1c(-c2cc(F)c(F)c3[nH]ncc23)c2cc(N3CCOCC3)c3ncccc3c2[nH]c1=O [Compound C208, 3-Amino-4-(6,7-difluoro-1H-indazol-4-yl)-6-morpholin-4-yl-1H-1,7-phenanthrolin-2-one]",8.68
19,"CN1CCN(c2cc3c(-c4cc(F)c(F)c5[nH]ncc45)c(N)c(=O)[nH]c3c3cccnc23)CC1 [Compound C209, 3-Amino-4-(6,7-difluoro-1H-indazol-4-yl)-6-(4-methylpiperazin-1-yl)-1H-1,7-phenanthrolin-2-one]",8.82

row,Compound,pIC50
1,"Nc1c(-c2cc(F)c(F)c3[nH]ncc23)c2cc(O[C@H]3C[C@H](F)C3)c3ncccc3c2[nH]c1=O [Compound C210, 3-Amino-4-(6,7-difluoro-1H-indazol-4-yl)-6-((1r,3r)-3-fluorocyclobutyl)oxy-1H-1,7-phenanthrolin-2-one]",8.89
2,"N#C[C@H]1C[C@H](Oc2cc3c(-c4cc(F)c(F)c5[nH]ncc45)c(N)c(=O)[nH]c3c3cccnc23)C1 [Compound C211, (1r,3r)-3-[[3-Amino-4-(6,7-difluoro-1H-indazol-4-yl)-2-oxo-1H-1,7-phenanthrolin-6-yl]oxy]cyclobutane-1-carbonitrile]",9.06
3,"Nc1c(-c2cc(F)c(F)c3[nH]ncc23)c2cc(OCCC(F)F)c3ncccc3c2[nH]c1=O [Compound C214, 3-Amino-4-(6,7-difluoro-1H-indazol-4-yl)-6-(3,3-difluoropropoxy)-1H-1,7-phenanthrolin-2-one]",8.77
4,"Nc1c(-c2cc(F)c(F)c3[nH]ncc23)c2cc(-c3cccnc3)c3ncccc3c2[nH]c1=O [Compound C215, 3-Amino-4-(6,7-difluoro-1H-indazol-4-yl)-6-pyridin-3-yl-1H-1,7-phenanthrolin-2-one]",8.62
5,"Cc1c(C)c2c(-c3cc(F)c(F)c4[nH]ncc34)c(N)c(=O)[nH]c2c2cccnc12 [Compound C216, 3-Amino-4-(6,7-difluoro-1H-indazol-4-yl)-5,6-dimethyl-1H-1,7-phenanthrolin-2-one]",8.47
6,"Cc1c(C2CC2)c2ncccc2c2[nH]c(=O)c(N)c(-c3cc(F)c(F)c4[nH]ncc34)c12 [Compound C217, 3-Amino-6-cyclopropyl-4-(6,7-difluoro-1H-indazol-4-yl)-5-methyl-1H-1,7-phenanthrolin-2-one]",8.74
7,"Cc1cc2ncccc2c2[nH]c(=O)c(N)c(-c3cc(F)c(F)c4[nH]ncc34)c12 [Compound C218, 3-Amino-4-(6,7-difluoro-1H-indazol-4-yl)-5-methyl-1H-1,7-phenanthrolin-2-one]",9.37
8,"Cc1c(F)c2c(-c3cc(F)c(F)c4[nH]ncc34)c(N)c(=O)[nH]c2c2cccnc12 [Compound C219, 3-Amino-4-(6,7-difluoro-1H-indazol-4-yl)-5-fluoro-6-methyl-1H-1,7-phenanthrolin-2-one]",8.68
9,"Nc1c(-c2cc(F)c(F)c3[nH]ncc23)c2c(F)c(C3CC3)c3ncccc3c2[nH]c1=O [Compound C220, 3-Amino-6-cyclopropyl-4-(6,7-difluoro-1H-indazol-4-yl)-5-fluoro-1H-1,7-phenanthrolin-2-one]",8.39
10,"Nc1c(-c2cc(F)c(F)c3[nH]ncc23)c2c(F)cc3ncccc3c2[nH]c1=O [Compound C221, 3-Amino-4-(6,7-difluoro-1H-indazol-4-yl)-5-fluoro-1H-1,7-phenanthrolin-2-one]",9.14
11,"Cc1cc2c(-c3c(F)cc(F)c4[nH]ncc34)c(N)c(=O)[nH]c2c2cccnc12 [Compound C222, 3-Amino-4-(5,7-difluoro-1H-indazol-4-yl)-6-methyl-1H-1,7-phenanthrolin-2-one]",8.85
12,"Cc1cc2c(-c3nccc4[nH]ncc34)c(N)c(=O)[nH]c2c2cccnc12 [Compound C223, 3-Amino-6-methyl-4-(1H-pyrazolo[4,3-c]pyridin-4-yl)-1H-1,7-phenanthrolin-2-one]",6.12
13,"Cc1cc2c(-c3cccc4[nH]nnc34)c(N)c(=O)[nH]c2c2cccnc12 [Compound C224, 3-Amino-4-(1H-benzotriazol-4-yl)-6-methyl-1H-1,7-phenanthrolin-2-one]",5.52
14,"CC(C)(C)c1cc2c(-c3ccc(F)c4[nH]ncc34)c(N)c(=O)[nH]c2c2cccnc12 [Compound C225, 3-Amino-6-(tert-butyl)-4-(7-fluoro-1H-indazol-4-yl)-1H-1,7-phenanthrolin-2-one]",6.00
15,"Cc1cc2c(-c3ccc(F)c4[nH]ncc34)c(N)c(=O)[nH]c2c2ncccc12 [Compound D3, 3-Amino-4-(7-fluoro-1H-indazol-4-yl)-6-methyl-1H-1,10-phenanthrolin-2-one]",8.34
16,"Nc1c(-c2ccc(F)c3[nH]ncc23)c2ccc3cccnc3c2[nH]c1=O [Compound D4, 3-Amino-4-(7-fluoro-1H-indazol-4-yl)-1H-1,10-phenanthrolin-2-one]",7.82
17,"CCc1cc2c(-c3ccc(F)c4[nH]ncc34)c(N)c(=O)[nH]c2c2ncccc12 [Compound D5, 3-Amino-6-ethyl-4-(7-fluoro-1H-indazol-4-yl)-1H-1,10-phenanthrolin-2-one]",8.19
18,"CN1CCN(c2cc3c(-c4ccc(F)c5[nH]ncc45)c(N)c(=O)[nH]c3c3ncccc23)CC1 [Compound D6, 3-Amino-4-(7-fluoro-1H-indazol-4-yl)-6-(4-methylpiperazin-1-yl)-1H-1,10-phenanthrolin-2-one]",8.68
19,"Nc1c(-c2ccc(F)c3[nH]ncc23)c2cc(N3CCC(N4CCOCC4)CC3)c3cccnc3c2[nH]c1=O [Compound D7, 3-Amino-4-(7-fluoro-1H-indazol-4-yl)-6-(4-morpholin-4-ylpiperidin-1-yl)-1H-1,10-phenanthrolin-2-one]",7.82
